Legend:
[1] = target: FLT3 (Homo sapiens (Human), UniProt P36888); experiment: Inhibition of FLT3 kinase activity (HTRF KinEASE-TK); format: biochemical; conditions: biochemical
Experimental: Inhibition of c-Kit, PDGFRα, PDGFRβ, CSFIR and FLT3 Kinase Activity
Compounds were evaluated to determine the potency with which they inhibit the kinase activity of the following panel of tyrosine kinases: c-Kit (SignalChem, Product #: K06-11BG), PDGFRα (SignalChem, Product #: P12-18G), PDGFRβ (SignalChem, Product #: P13-11G), CSFIR (SignalChem, Product #: C74-11G) and FLT3 (Invitrogen, Product #: PR4666C). Activity was determined as a function of phosphorylated biotinylated TK peptide generated by the transfer of phosphate from ATP as measured by the use of the HTRF KinEASE-TK assay kit (Cisbio, Product #: 62TKOPEJ). Levels of phosphorylated biotinylated TK peptide (Part 61TKOBLC of KinEASE assay kit) are quantified by its capture by phosphor-TK-Antibody-Cryptate (Part of KinEASE assay kit) and XL665-labeled Streptavidin (Part 610SAXLG of KinEASE assay kit) followed by measurement of Time-Resolved Fluorescence Resonance Energy Transfer (TR-FRET) signal. On the day of the assay, compounds were solubilized in DMSO and dispensed into a 384-well white Opti-plate (PerkinElmer, catalog #6007290) to generate a 22 point 1:2 titration. Enzyme solution was prepared for each of the tyrosine kinases in 50 mM HEPES, pH 7.4, 5 mM MgCl2 for c-Kit or 10 mM MgCl2 for FLT3, CSFIR, PDGFRa and PDGFRβ, 2 mM MnCl2, 0.01% Brij-35 and 0.01% BSA. Working enzyme concentrations were prepared for c-Kit at 2 nM (2×), PDGFRa and PDGFRß at 10 nM (2×), CSFIR at 2 nM (2×) and FLT3 at 0.4 nM (2×). Five microliters of enzyme dilution of each tyrosine kinase were added to their respective 384-well white Opti-plate pre-dispensed with compound and allowed to incubate for 1 h at rt. Utilizing the same enzyme buffer recipe, 2x substrate mixes were prepared for each enzyme as follows: For c-Kit, 1.6 μM (2×) TK substrate and 16 μM (2×) ATP (Promega, catalog #V915). For PDGFRα, 3.2 μM TK substrate and 1 μM ATP. For PDGFRβ, 3.2 μM TK substrate and 40 μM ATP. For CSFIR, […] TK substrate and 20 μM ATP. For FLT3, 3.2 μM TK substrate and 100 μM ATP. Reactions were initiated by addition of 5 μL of the respective 2x substrate mix to each well of the plates containing the respective tyrosine kinase enzymes and were allowed to proceed for 120 minutes at rt, except for FLT3, the reaction time is 45 min. Following the reaction, 10 μL of detection mix consisting of 0.2 μM (2×) of Streptavidin-XL665 and 2 μM (2×) of TK-Antibody-Cryptate prepared in detection buffer (Part 62SDBRDF of KinEASE assay kit) was added and then allowed to incubate for 60 min. The TR-FRET signal was quantified by measuring the ratio of emission at 665 nm to 620 nm after excitation at 320 nm by reading on a PerkinElmer Envision multimode reader. Compound potencies (IC50 values) were determined using a standard 4-parameter non-linear regression fit.

[2] = target: c-Kit (Homo sapiens (Human), UniProt P10721); experiment: Inhibition of c-Kit kinase activity (HTRF KinEASE-TK); format: biochemical; conditions: biochemical
Chain of c-Kit (P10721 26-976): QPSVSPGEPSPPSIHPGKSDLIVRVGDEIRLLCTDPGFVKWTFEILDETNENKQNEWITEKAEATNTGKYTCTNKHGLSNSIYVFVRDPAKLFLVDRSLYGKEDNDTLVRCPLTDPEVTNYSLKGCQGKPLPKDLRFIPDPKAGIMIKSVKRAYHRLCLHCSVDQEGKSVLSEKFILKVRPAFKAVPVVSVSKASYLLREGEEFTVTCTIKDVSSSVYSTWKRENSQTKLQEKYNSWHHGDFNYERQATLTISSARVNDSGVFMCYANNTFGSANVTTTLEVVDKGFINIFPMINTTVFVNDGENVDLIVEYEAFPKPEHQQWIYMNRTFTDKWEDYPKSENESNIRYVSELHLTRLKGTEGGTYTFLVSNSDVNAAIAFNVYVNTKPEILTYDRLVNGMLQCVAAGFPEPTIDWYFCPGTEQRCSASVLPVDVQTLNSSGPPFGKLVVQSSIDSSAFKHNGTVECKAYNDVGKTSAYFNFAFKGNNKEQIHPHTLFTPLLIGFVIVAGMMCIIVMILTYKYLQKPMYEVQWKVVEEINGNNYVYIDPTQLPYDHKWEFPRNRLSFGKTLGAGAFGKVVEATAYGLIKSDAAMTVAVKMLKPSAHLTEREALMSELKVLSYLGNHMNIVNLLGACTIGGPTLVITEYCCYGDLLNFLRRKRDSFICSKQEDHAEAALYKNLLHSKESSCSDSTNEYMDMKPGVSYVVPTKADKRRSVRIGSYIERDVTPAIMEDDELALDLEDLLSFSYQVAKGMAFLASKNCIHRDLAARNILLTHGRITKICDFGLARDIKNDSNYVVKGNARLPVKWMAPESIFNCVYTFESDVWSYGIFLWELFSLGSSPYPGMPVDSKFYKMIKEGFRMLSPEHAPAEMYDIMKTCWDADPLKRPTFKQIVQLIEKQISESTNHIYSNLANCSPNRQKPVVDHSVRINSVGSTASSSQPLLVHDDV
In short: (§1)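 Human kinases were preincubated 1 h at rt with a 22-point 1:2 compound titration, then run 120 min at rt with biotinylated TK peptide and ATP (2× mix: c-Kit 16 μM, PDGFRα 1 μM, PDGFRβ 40 μM, CSF1R 20 μM). Phosphopeptide was read by HTRF TR-FRET (665/620 nm), and IC50s came from 4-parameter fits.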

[3] = target: PDGFRβ (Homo sapiens (Human), UniProt P09619); experiment: Inhibition of PDGFRβ kinase activity (HTRF KinEASE-TK); conditions: biochemical
Chain of PDGFRβ (P09619 33-1106): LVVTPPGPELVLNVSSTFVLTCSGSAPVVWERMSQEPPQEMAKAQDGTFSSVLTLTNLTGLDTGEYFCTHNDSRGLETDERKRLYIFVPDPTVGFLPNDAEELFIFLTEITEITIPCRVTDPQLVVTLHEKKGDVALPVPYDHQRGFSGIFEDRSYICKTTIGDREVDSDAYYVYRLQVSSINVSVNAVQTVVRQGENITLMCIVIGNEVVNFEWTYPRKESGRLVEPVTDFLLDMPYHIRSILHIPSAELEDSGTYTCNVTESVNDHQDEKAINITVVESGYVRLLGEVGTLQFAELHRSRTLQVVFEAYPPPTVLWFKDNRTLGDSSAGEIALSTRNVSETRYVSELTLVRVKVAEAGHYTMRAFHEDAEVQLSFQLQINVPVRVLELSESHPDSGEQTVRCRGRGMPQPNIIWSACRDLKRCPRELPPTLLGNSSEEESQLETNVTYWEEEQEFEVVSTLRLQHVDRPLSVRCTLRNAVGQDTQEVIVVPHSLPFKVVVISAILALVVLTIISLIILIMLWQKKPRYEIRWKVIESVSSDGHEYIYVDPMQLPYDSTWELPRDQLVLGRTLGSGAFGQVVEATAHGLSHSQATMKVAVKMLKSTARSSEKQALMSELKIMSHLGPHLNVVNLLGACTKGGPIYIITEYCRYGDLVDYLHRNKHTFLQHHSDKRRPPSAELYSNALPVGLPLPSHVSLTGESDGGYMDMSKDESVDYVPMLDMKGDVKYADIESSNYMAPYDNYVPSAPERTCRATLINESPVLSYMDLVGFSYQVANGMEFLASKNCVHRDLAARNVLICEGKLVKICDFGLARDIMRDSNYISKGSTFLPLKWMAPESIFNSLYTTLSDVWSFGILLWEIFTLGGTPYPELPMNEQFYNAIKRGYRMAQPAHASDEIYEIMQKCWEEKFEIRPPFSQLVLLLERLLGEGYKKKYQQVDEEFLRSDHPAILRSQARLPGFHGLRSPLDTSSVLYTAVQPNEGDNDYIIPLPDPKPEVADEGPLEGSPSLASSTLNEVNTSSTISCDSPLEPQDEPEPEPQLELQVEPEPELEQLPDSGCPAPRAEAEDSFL
In short: as §1

[4] = target: CSF1R (Homo sapiens (Human), UniProt P07333); experiment: Inhibition of CSF1R kinase activity (HTRF KinEASE-TK); conditions: biochemical
Chain of CSF1R (P07333 20-972): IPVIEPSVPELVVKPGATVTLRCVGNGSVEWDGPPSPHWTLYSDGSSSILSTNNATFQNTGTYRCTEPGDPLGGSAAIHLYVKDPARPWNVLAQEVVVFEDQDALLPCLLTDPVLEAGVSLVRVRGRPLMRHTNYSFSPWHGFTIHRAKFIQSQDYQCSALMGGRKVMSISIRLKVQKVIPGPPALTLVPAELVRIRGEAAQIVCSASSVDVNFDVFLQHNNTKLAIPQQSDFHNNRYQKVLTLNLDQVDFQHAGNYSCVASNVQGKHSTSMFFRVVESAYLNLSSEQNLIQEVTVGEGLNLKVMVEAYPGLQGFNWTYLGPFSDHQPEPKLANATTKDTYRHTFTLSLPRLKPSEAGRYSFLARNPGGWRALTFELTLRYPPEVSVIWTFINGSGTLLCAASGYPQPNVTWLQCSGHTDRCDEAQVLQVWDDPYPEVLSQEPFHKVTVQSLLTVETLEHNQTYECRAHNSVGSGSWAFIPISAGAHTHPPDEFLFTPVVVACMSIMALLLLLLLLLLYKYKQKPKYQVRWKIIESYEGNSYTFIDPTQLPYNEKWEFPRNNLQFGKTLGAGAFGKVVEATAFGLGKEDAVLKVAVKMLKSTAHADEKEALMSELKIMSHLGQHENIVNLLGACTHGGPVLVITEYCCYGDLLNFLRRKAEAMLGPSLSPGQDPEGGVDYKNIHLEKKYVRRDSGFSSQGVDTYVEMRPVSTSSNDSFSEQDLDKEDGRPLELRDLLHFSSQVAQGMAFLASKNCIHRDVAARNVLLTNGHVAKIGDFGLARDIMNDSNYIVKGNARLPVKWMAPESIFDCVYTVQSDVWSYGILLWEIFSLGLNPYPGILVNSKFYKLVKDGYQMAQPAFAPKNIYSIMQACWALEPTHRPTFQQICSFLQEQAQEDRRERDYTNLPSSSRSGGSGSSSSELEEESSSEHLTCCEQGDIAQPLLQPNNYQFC
In short: as §1

[5] = target: PDGFRα (Homo sapiens (Human), UniProt P16234); experiment: Inhibition of PDGFRα kinase activity (HTRF KinEASE-TK); conditions: biochemical
Chain of PDGFRα (P16234 24-1089): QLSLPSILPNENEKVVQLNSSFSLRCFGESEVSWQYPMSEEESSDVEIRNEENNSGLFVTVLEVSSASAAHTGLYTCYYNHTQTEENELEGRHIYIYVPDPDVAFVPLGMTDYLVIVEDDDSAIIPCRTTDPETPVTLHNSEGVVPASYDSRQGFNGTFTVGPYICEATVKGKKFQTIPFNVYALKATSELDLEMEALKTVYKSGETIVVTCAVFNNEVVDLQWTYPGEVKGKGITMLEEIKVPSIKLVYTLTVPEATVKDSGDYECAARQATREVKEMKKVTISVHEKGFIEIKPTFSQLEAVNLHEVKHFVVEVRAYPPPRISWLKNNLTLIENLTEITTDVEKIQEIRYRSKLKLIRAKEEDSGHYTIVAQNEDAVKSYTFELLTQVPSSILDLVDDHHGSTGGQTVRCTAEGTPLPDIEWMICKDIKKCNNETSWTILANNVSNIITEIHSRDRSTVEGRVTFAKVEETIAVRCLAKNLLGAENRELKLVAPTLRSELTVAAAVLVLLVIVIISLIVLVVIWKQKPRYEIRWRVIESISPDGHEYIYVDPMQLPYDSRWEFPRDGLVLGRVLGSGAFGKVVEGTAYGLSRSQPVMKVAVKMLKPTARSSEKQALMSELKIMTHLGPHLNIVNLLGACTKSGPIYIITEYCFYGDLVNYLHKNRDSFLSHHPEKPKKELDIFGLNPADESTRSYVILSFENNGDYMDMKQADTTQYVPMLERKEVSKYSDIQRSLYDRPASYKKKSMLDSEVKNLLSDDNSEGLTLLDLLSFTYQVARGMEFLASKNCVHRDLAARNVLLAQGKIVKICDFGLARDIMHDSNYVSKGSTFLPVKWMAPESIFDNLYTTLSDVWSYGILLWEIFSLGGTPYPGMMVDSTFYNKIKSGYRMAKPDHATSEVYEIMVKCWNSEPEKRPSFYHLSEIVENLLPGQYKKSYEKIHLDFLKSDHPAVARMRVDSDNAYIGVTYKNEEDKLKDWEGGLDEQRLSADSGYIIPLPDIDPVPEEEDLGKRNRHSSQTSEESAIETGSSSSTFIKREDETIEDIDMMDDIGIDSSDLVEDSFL
In short: as §1

[6] = tested on: Phospho-KIT (Y703) in M07e cells; experiment: Phospho-KIT (Y703) cellular assay in M07e cells; format: cell-based; conditions: M-07e; Phospho-KIT (Y703), M07e cells; read-out: M07e Cell IC50
In short: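 Serum-starved M07e cells preincubated 50 min at 37° C with 11-point half-log compound titration, then stimulated 10 min with SCF at 90.9 ng/mL final. Fixed, permeabilized cells stained for phospho-KIT Y703 and read by flow cytometry (live-gated geometric mean); IC50 by 4-parameter fit normalized to DMSO and positive control.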

Chain of FLT3 (P36888 27-993): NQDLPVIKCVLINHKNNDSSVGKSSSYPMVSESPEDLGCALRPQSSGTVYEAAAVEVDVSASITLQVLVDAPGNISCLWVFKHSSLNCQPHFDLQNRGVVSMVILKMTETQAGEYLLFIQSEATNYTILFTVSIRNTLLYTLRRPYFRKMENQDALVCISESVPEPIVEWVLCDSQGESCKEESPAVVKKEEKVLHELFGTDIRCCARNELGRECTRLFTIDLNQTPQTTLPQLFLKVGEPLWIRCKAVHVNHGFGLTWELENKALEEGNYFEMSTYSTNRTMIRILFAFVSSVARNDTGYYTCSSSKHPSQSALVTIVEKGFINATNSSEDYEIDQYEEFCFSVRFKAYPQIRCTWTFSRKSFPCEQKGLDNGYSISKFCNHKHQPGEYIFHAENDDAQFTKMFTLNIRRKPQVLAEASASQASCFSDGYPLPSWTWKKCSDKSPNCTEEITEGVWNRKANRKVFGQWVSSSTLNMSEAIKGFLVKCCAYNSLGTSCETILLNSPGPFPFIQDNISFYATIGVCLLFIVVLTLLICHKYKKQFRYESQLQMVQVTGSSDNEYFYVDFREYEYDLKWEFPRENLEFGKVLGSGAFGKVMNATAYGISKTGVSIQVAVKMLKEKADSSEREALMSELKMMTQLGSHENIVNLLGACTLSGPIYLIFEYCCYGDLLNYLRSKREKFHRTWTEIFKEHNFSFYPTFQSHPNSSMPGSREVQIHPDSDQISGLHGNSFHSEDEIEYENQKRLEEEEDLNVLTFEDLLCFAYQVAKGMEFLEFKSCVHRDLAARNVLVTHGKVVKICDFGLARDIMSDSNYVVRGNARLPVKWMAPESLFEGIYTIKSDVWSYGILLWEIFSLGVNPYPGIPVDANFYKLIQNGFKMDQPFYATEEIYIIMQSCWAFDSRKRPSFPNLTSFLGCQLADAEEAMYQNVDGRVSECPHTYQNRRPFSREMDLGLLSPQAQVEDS

Row | Compound | IC50 ([1]; HTRF KinEASE-TK) | IC50 ([2]; HTRF KinEASE-TK) | IC50 ([3]; HTRF KinEASE-TK) | IC50 ([4]; HTRF KinEASE-TK) | IC50 ([5]; HTRF KinEASE-TK) | IC50 [6] | IC50 [1] | IC50 [2] | IC50 [3] | IC50 [4] | IC50 [5]
1 | Cc1cc(F)c(C(=O)Nc2ccc3c(n2)COC3)cc1NC(=O)c1cnc(N)s1 [Example 120, 2-Amino-N-[5-(5,7-dihydrofuro [3,4-b]pyridin-2-ylcarbamoyl)-4-fluoro-2-methylphenyl]-1,3-thiazole-5-carboxamide] | > 1000 nM | < 100 nM | > 1000 nM | > 1000 nM | > 1000 nM |  |  |  |  |  | 
2 | Nc1ncc(C(=O)Nc2cc(C(=O)Nc3ccc(OC4CC4)cn3)c(F)cc2Br)s1 [Example 236, 2-Amino-N-[2-bromo-5-[(5-cyclopropyloxypyridin-2-yl)carbamoyl]-4-fluorophenyl]-1,3-thiazole-5-carboxamide] | > 1000 nM | < 100 nM | 100 to 1000 nM | 100 to 1000 nM | > 1000 nM |  |  |  |  |  | 
3 | Cc1cc(F)c(C(=O)N[C@H]2CCOC2)cc1NC(=O)c1cnc(NC(=O)N2CCOCC2)s1 [Example 105, N-[5-[[4-fluoro-2-methyl-5-[[(3S)-oxolan-3-yl]carbamoyl]phenyl]carbamoyl]-1,3-thiazol-2-yl]morpholine-4-carboxamide] | > 1000 nM | < 100 nM | > 1000 nM | > 1000 nM | > 1000 nM |  |  |  |  |  | 
4 | Cc1cc(F)c(C(=O)Nc2cnn(C)c2)cc1NC(=O)c1cnc(N)s1 [Example 167, 2-Amino-N-[4-fluoro-2-methyl-5-[(1-methylpyrazol-4-yl)carbamoyl]phenyl]-1,3-thiazole-5-carboxamide] | > 1000 nM | < 100 nM | > 1000 nM | > 1000 nM | > 1000 nM |  |  |  |  |  | 
5 | Cc1cc(F)c(C(=O)N[C@H]2C[C@@H]2F)cc1NC(=O)c1cnc(N)s1 [Example 138, 2-Amino-N-[4-fluoro-5-[[(1S,2S)-2-fluorocyclopropyl]carbamoyl]-2-methylphenyl]-1,3-thiazole-5-carboxamide] | > 1000 nM | < 100 nM | > 1000 nM | > 1000 nM | 100 to 1000 nM |  |  |  |  |  | 
6 | CC(=O)Nc1ncc(C(=O)Nc2cc(C(=O)Nc3ccc(OC4CC4)cn3)c(F)cc2C)s1 [Example 240, 2-Acetamido-N-[5-[(5-cyclopropyloxypyridin-2-yl)carbamoyl]-4-fluoro-2-methylphenyl]-1,3-thiazole-5-carboxamide] | > 1000 nM | < 100 nM | < 100 nM | > 1000 nM | > 1000 nM |  |  |  |  |  | 
7 | Cc1cc(F)c(C(=O)Nc2ccc(OC3CC3)cn2)cc1NC(=O)c1cnc(NC(=O)N2CCC2)s1 [Example 6, 2-(Azetidine-1-carbonylamino)-N-[5-[(5-cyclopropyloxypyridin-2-yl)carbamoyl]-4-fluoro-2-methylphenyl]-1,3-thiazole-5-carboxamide] |  |  |  |  |  |  | > 1000 nM | < 100 nM | < 100 nM | < 100 nM | < 100 nM
8 | Cc1ncc(C(=O)Nc2cc(C(=O)Nc3ncc(C4CC4)cn3)c(F)cc2C)s1 [Example 44, NV-[5-[(5-cyclopropylpyrimidin-2-yl)carbamoyl]-4-fluoro-2-methylphenyl]-2-methyl-1,3-thiazole-5-carboxamide] | > 1000 nM | < 100 nM | > 1000 nM | > 1000 nM | > 1000 nM |  |  |  |  |  | 
9 | Cc1ncc(C(=O)Nc2cc(C(=O)Nc3ccn(C4CCC4)n3)c(F)cc2C)s1 [Example 61, N-[5-[(1-Cyclobutylpyrazol-3-yl)carbamoyl]-4-fluoro-2-methylphenyl]-2-methyl-1,3-thiazole-5-carboxamide] | > 1000 nM | < 100 nM | > 1000 nM | > 1000 nM | > 1000 nM |  |  |  |  |  | 
10 | Cc1cc(F)c(C(=O)N[C@H]2C[C@H]2F)cc1NC(=O)c1cnc(N)s1 [Example 136, 2-Amino-N-[4-fluoro-5-[[(1S,2R)-2-fluorocyclopropyl]carbamoyl]-2-methylphenyl]-1,3-thiazole-5-carboxamide] | > 1000 nM | 100 to 1000 nM | > 1000 nM | > 1000 nM | 100 to 1000 nM |  |  |  |  |  | 
11 | Cc1ncc(C(=O)Nc2cc(C(=O)Nc3cnc(N4CC[C@H](F)C4)cn3)c(F)cc2C)s1 [Example 93, N-[4-fluoro-5-[[5-[(3S)-3-fluoropyrrolidin-1-yl]pyrazin-2-yl]carbamoyl]-2-methylphenyl]-2-methyl-1,3-thiazole-5-carboxamide] |  | < 100 nM | > 1000 nM | > 1000 nM | > 1000 nM | < 100 nM |  |  |  |  | 
12 | Cc1ncc(C(=O)Nc2cc(C(=O)Nc3ccn(CC4CC4)n3)c(F)cc2C)s1 [Example 70, N-[5-[[1-(cyclopropylmethyl)pyrazol-3-yl]carbamoyl]-4-fluoro-2-methylphenyl]-2-methyl-1,3-thiazole-5-carboxamide] |  | < 100 nM | > 1000 nM | > 1000 nM | > 1000 nM | < 100 nM |  |  |  |  | 

Further lines, with some results ahead:

Row | IC50 ([1]; HTRF KinEASE-TK) | IC50 ([2]; HTRF KinEASE-TK) | IC50 ([3]; HTRF KinEASE-TK) | IC50 ([4]; HTRF KinEASE-TK) | IC50 ([5]; HTRF KinEASE-TK) | IC50 [6] | Compound | IC50 [1] | IC50 [2] | IC50 [3] | IC50 [4] | IC50 [5]
13 | > 1000 nM | < 100 nM | > 1000 nM | > 1000 nM | > 1000 nM |  | Cc1cc(F)c(C(=O)Nc2ccn(C)n2)cc1NC(=O)c1cnc(N)s1 [Example 163, 2-Amino-N-[4-fluoro-2-methyl-5-[(1-methylpyrazol-3-yl)carbamoyl]phenyl]-1,3-thiazole-5-carboxamide] |  |  |  |  | 
14 | > 1000 nM | < 100 nM | 100 to 1000 nM | > 1000 nM | > 1000 nM |  | COC(c1ccc(NC(=O)c2cc(NC(=O)c3cnc(N)s3)c(C)cc2F)nc1)C1CC1 (stereo not drawn) [Example 197, 2-Amino-N-[5-[[5-[cyclopropyl(methoxy)methyl]pyridin-2-yl]carbamoyl]-4-fluoro-2-methylphenyl]-1,3-thiazole-5-carboxamide] |  |  |  |  | 
15 | > 1000 nM | < 100 nM | 100 to 1000 nM | 100 to 1000 nM | 100 to 1000 nM |  | Cc1cc(F)c(C(=O)Nc2cnn(C3CC3)c2)cc1NC(=O)c1cnc(N)s1 [Example 161, 2-Amino-N-[5-[(1-cyclopropylpyrazol-4-yl)carbamoyl]-4-fluoro-2-methylphenyl]-1,3-thiazole-5-carboxamide] |  |  |  |  | 
16 | > 1000 nM | < 100 nM | 100 to 1000 nM | 100 to 1000 nM | 100 to 1000 nM |  | Cc1cc(F)c(C(=O)Nc2cnn(C(C)C)n2)cc1NC(=O)c1cnc(N)s1 [Example 171, 2-Amino-N-[4-fluoro-2-methyl-5-[(2-propan-2-yltriazol-4-yl)carbamoyl]phenyl]-1,3-thiazole-5-carboxamide] |  |  |  |  | 
17 | > 1000 nM | < 100 nM | > 1000 nM | > 1000 nM | 100 to 1000 nM |  | Cc1cc(F)c(C(=O)N[C@@H]2C[C@@H]2F)cc1NC(=O)c1cnc(N)s1 [Example 137] |  |  |  |  | 
18 | > 1000 nM | < 100 nM | 100 to 1000 nM | 100 to 1000 nM | > 1000 nM |  | Cc1ncc(NC(=O)c2cc(NC(=O)c3cnc(N)s3)c(C)cc2F)s1 [Example 166, 2-Amino-N-[4-fluoro-2-methyl-5-[(2-methyl-1,3-thiazol-5-yl)carbamoyl]phenyl]-1,3-thiazole-5-carboxamide] |  |  |  |  | 

From patent publication US20250145606A1 (Arcus Biosciences, Inc., priority 2023, published 2025)
